Assay results reported in PubChem BioAssay AID493225 (Broad Institute, 2011).
Several values for one entry are separate records, joined by “and”; a condition that tells them apart may be missing. Equal entries are not always repeated. Activity calls are given as the source filed them.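 How the source made its calls: active means fitted curve reaching 40% activation, where positive control equals 100, at or below the top valid dose; inconclusive means flat curve between 30 and 70% activation, or a poor fit; inactive means the rest, including activity in the opposite direction.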

Molecular target: Hypoxia-inducible factor 1-alpha (Homo sapiens) (UniProt Q16665)
Assay: HIF1A nuclear translocation activators in U2OS – imaging, U2OS GFP-HIF1alpha, high content, dry powder, set 2, orthogonal assay for HIF activator project, dose response (AID 493225)
Details: U2OS GFP-HIF1alpha nuclear intensity imaging

Chain of Hypoxia-inducible factor 1-alpha (Homo sapiens) (Q16665 whole entry, looked up): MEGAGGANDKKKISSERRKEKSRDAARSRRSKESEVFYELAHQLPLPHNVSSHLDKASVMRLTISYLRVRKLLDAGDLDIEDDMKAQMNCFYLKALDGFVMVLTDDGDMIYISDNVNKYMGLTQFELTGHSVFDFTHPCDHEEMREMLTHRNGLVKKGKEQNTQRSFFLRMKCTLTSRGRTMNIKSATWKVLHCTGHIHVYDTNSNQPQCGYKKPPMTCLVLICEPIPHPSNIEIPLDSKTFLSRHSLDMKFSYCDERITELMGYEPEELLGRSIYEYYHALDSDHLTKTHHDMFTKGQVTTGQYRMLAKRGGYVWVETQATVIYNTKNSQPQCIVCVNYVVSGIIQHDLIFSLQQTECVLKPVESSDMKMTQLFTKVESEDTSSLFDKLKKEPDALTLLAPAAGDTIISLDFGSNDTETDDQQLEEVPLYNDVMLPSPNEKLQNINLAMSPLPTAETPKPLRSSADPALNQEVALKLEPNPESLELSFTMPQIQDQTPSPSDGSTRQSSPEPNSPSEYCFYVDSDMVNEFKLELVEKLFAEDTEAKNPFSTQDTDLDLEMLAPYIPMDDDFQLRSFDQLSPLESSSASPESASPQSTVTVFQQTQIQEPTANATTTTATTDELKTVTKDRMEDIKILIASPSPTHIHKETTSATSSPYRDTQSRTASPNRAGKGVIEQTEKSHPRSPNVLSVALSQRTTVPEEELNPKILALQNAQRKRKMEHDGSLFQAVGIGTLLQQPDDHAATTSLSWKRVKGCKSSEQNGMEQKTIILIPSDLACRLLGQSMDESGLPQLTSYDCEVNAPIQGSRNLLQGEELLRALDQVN

| Compound | AC40 |
| --- | --- |
| O=C(NCCN1CCCCC1)c1cc(-c2ccccc2)on1 | > 38 µM (inactive) |
| c1ccc(-c2nnc(-c3ccccn3)nc2NCC2CC2)cc1 | 2.07 µM |
| Oc1ccc(CNC2Cc3ccccc3C2)c2cccnc12 | 5.59 µM |
| Cn1c(-c2ccccc2)cnc1Nc1nc(-c2ccccn2)nnc1-c1ccccc1 | > 13.5 µM (inactive) |
| Oc1ccc(CNC2CCc3ccccc32)c2cccnc12 (configuration not stated) | 13.5 µM |
| Cc1ccc(CNc2nc(-c3ccccn3)nnc2-c2ccccc2)cc1C | 0.736 µM |
| O=C(NCCCN1CCOCC1)c1cc(-c2ccccc2)on1 | 17.7 µM |
| Oc1ccc(CN2CCC(Cc3ccccc3)CC2)c2cccnc12 | 8.98 µM |
| O=C(NC1CCc2ccccc2C1)c1cc(-c2ccccc2)on1 (configuration not stated) | > 38 µM (inactive) |
| c1ccc(-c2nnc(-c3ccccn3)nc2NCc2ccccn2)cc1 | 5.02 µM |
| OCC1CCN(c2nc(-c3ccccn3)nnc2-c2ccccc2)CC1 | 11 µM |
| c1ccc(-c2nnc(-c3ccccn3)nc2NCC2CCOCC2)cc1 | 7.28 µM |
| COc1cccc(CNc2nc(-c3ccccn3)nnc2-c2ccccc2)c1 | 1.57 µM |
| O=C(NCCN1CCOCC1)c1cc(-c2ccccc2)on1 | 20.6 µM |
| N#CC1(c2ccccc2)CCN(Cc2ccc(O)c3ncccc23)CC1 | 19.8 µM |
| Cc1cccc(Nc2nc(-c3ccccn3)nnc2-c2ccccc2)n1 | 2.72 µM |
| CC(C)(C)CCNC(=O)c1cc(-c2ccccc2)on1 | > 38 µM (inactive) |
| COc1ccccc1N1CCN(Cc2ccc(O)c3ncccc23)CC1 | 14.8 µM |
| c1ccc(-c2nnc(-c3ccccn3)nc2NCCc2ccccn2)cc1 | 6.24 µM |
| c1ccc(-c2nnc(-c3ccccn3)nc2NCc2cccnc2)cc1 | 4.19 µM |
| c1ccc(CNc2nc(-c3ccccn3)nnc2-c2ccccc2)cc1 | 1.93 µM |
| Oc1ccc(CN2CCc3ccccc3C2)c2cccnc12 | 4.51 µM and 18.1 µM |

| Compound | AC40 |
| --- | --- |
| c1ccc(-c2nnc(-c3ccccn3)nc2N2CCC(c3ccccc3)C2)cc1 (configuration not stated) | 0.689 µM |
| Cc1ccccc1CNc1nc(-c2ccccn2)nnc1-c1ccccc1 | 0.628 µM |
| c1ccc(-c2csc(Nc3nc(-c4ccccn4)nnc3-c3ccccc3)n2)cc1 | 1.05 µM |
| CC(Nc1nc(-c2ccccn2)nnc1-c1ccccc1)c1ccccc1 (configuration not stated) | 1.1 µM |
| C[C@@H](Nc1nc(-c2ccccn2)nnc1-c1ccccc1)c1ccccc1 | 1.5 µM |
| c1ccc(-c2nnc(-c3ccccn3)nc2NCCCN2CCOCC2)cc1 | 7.52 µM |
| c1ccc(-c2nnc(-c3ccccn3)nc2N2CCC(C3CCCCC3)C2)cc1 (configuration not stated) | 0.265 µM |
| c1ccc(-c2nnc(-c3ccccn3)nc2Nc2nc3ccccc3s2)cc1 | 0.491 µM |
| Oc1ccc(CN2CCC3CCCCC3C2)c2cccnc12 (configuration not stated) | 5.14 µM |
| O=C(NCC1CC1)c1cc(-c2ccccc2)on1 | 15.4 µM |
| c1ccc(-c2ccc(CNc3nc(-c4ccccn4)nnc3-c3ccccc3)cc2)cc1 | 0.164 µM |
| O=C(NCCCn1ccnc1)c1cc(-c2ccccc2)on1 | 6.13 µM |
| C[C@H](Nc1nc(-c2ccccn2)nnc1-c1ccccc1)C1CCCCC1 | 0.635 µM |
| COc1ccc(CNc2nc(-c3ccccn3)nnc2-c2ccccc2)cc1 | 1.09 µM |
| Cc1ccc(Nc2nc(-c3ccccn3)nnc2-c2ccccc2)cn1 | 6.61 µM |
| c1ccc(-c2cnc(Nc3nc(-c4ccccn4)nnc3-c3ccccc3)s2)cc1 | 19.7 µM |
| Cc1ccc(NC(=O)c2cc(-c3ccccc3)on2)cn1 | > 38 µM (inactive) |
| O=C(Nc1nc2ccccc2s1)c1cc(-c2ccccc2)on1 | 34.9 µM |
| CN1CCN(c2nc(-c3ccccn3)nnc2-c2ccccc2)CC1 | 5.53 µM |
| c1ccc(-c2nnc(-c3ccccn3)nc2N2CCC(N3CCOCC3)CC2)cc1 | 5.88 µM |
| OCCCNc1nc(-c2ccccn2)nnc1-c1ccccc1 | 10.8 µM |
| Cc1ccc(CNc2nc(-c3ccccn3)nnc2-c2ccccc2)cc1 | 0.727 µM |

| Compound | AC40 |
| --- | --- |
| Cc1cccc(CNc2nc(-c3ccccn3)nnc2-c2ccccc2)c1 | 1.31 µM |
| C[C@@H](Nc1nc(-c2ccccn2)nnc1-c1ccccc1)C1CCCCC1 | 0.456 µM |
| c1ccc(-c2nnc(-c3ccccn3)nc2Nc2cnc3ccccc3n2)cc1 | 1.94 µM |
| CC(C)(C)CCNc1nc(-c2ccccn2)nnc1-c1ccccc1 | 0.357 µM and 0.401 µM |
| OCC1CCN(Cc2ccc(O)c3ncccc23)CC1 | 3.69 µM |
| c1ccc(-c2nnc(Nc3nc(-c4ccccn4)nnc3-c3ccccc3)s2)cc1 | 13.7 µM |
| Clc1cccc(CNc2nc(-c3ccccn3)nnc2-c2ccccc2)c1 | 0.74 µM |
| CC(C)(C)OC(=O)N1CCN(Cc2ccc(O)c3ncccc23)CC1 | 23.8 µM |
| O=C(NCCCCO)c1cc(-c2ccccc2)on1 | 1.89 µM |
| CC(C)(C)c1ccc(CNc2nc(-c3ccccn3)nnc2-c2ccccc2)cc1 | 0.249 µM |
| CN(C)c1nc(-c2ccccn2)nnc1-c1ccccc1 | 10.4 µM |
| c1ccc(-c2nnc(-c3ccccn3)nc2NCC2CCCCC2)cc1 | 0.801 µM |
| O=C(NCCCO)c1cc(-c2ccccc2)on1 | 6.49 µM |
| c1ccc(-c2cccc(CNc3nc(-c4ccccn4)nnc3-c3ccccc3)c2)cc1 | 0.359 µM |
| c1ccc(-c2nnc(-c3ccccn3)nc2N2CCN(c3ccncc3)CC2)cc1 | 3.16 µM |
| O=C(NC1Cc2ccccc2C1)c1cc(-c2ccccc2)on1 | > 38 µM (inactive) |
| CC1CN(Cc2ccc(O)c3ncccc23)CC(C)O1 (configuration not stated) | 20.8 µM |
| c1ccc(CCNc2nc(-c3ccccn3)nnc2-c2ccccc2)cc1 | 4.89 µM |
| c1ccc(-c2nnc(-c3ccccn3)nc2NCCN2CCOCC2)cc1 | 8.15 µM |
| C=CCNc1nc(-c2ccccn2)nnc1-c1ccccc1 | 4.73 µM |
| CCCCNC(=O)c1cc(-c2ccccc2)on1 | 7.07 µM |

Same assay, conditions: U2OS GFP-HIF1alpha nuclear intensity imaging; at 38 µM (top of the series)

| Compound | activation |
| --- | --- |
| Cc1cccc(NC(=O)c2cc(-c3ccccc3)on2)n1 | 0.577% (inactive) |
| O=C(c1cc(-c2ccccc2)on1)N1CCC(N2CCCC2)CC1 | 3.26% (inactive) |
| O=C(Nc1nc(-c2ccccc2)cs1)c1cc(-c2ccccc2)on1 | 3.11% (inactive) |
| O=C(Nc1ncc2ccccc2n1)c1cc(-c2ccccc2)on1 | 10.3% (inactive) |
| O=C(c1cc(-c2ccccc2)on1)N1CCC(CO)CC1 | -3.23% (inactive) |
| Cc1cccc(CNC(=O)c2cc(-c3ccccc3)on2)c1 | 9.64% (inactive) |
| Cc1ccccc1CNC(=O)c1cc(-c2ccccc2)on1 | 3.19% (inactive) |
| O=C(Nc1cn2ccccc2n1)c1cc(-c2ccccc2)on1 | 9.51% (inactive) |
| Cc1ccc(CNC(=O)c2cc(-c3ccccc3)on2)cc1 | 7.41% (inactive) |
| O=C(c1cc(-c2ccccc2)on1)N1CCc2cccnc21 | 3.77% (inactive) |
| O=C(Nc1ncc(-c2ccccc2)o1)c1cc(-c2ccccc2)on1 | -4.43% (inactive) |
| O=C(Nc1cnc2ccccc2c1)c1cc(-c2ccccc2)on1 | -3.02% (inactive) |
| O=C(c1cc(-c2ccccc2)on1)N1CCC(N2CCOCC2)CC1 | -1.88% (inactive) |
| O=C(Nc1nnc(-c2ccccc2)s1)c1cc(-c2ccccc2)on1 | -3.81% (inactive) |
| Cn1c(-c2ccccc2)cnc1NC(=O)c1cc(-c2ccccc2)on1 | 12.3% (inactive) |
| O=C(NCc1ccccc1)c1cc(-c2ccccc2)on1 | 5.64% (inactive) |
| Cn1c(NC(=O)c2cc(-c3ccccc3)on2)nc2ccccc21 | -4.79% (inactive) |
| CN(C)CCNC(=O)c1cc(-c2ccccc2)on1 | 9.39% (inactive) |
| O=C(NCC1CCCCC1)c1cc(-c2ccccc2)on1 | 8.55% (inactive) |
| O=C(c1cc(-c2ccccc2)on1)N1CCN(c2ccncc2)CC1 | -1.92% (inactive) |
| CN1CCN(C(=O)c2cc(-c3ccccc3)on2)CC1 | -2.52% (inactive) |
| O=C(Nc1ccc2ccccc2n1)c1cc(-c2ccccc2)on1 | -3.66% (inactive) |
